Laboratory results reported in patent publication US6043357A, “HIV protease inhibitors” (The University of Queensland, priority 1994, dated 2000).
Entries after “also recorded” stand apart in the source; their conditions may differ. Where two headings read alike, the source gives them in different places. Values belong to the compound of their own block, whether it stands above or below them.

Target: HIV-1 protease (Human immunodeficiency virus type 1 group M subtype B, UniProt P03369)
Experiment: biochemical
Procedure: HIV-1 protease activity was measured at 37° C. using a continuous fluorimetric assay based on the method of Toth et al., (Toth et al., 1990, Int. J. Pept. Res. 36 544-550). The substrate, 2-aminobenzoyl-threonine-isoleucine-norleucine-(p-nitro)-phenylalanine-glutamine-arginine-NH2 (Abz-NF^* -6), was synthesised by solid phase peptide synthesis (Kent et al., 1991, In: Peptides 1990: Proceedings of the Twenty-First European Peptide Symposium (Girault, E. and Andrew, D. eds.) pp 172-173, ESCOM, Leiden). Enzyme activity was measured as the increase in fluorescence intensity upon substrate hydrolysis. The change in fluorescence intensity was monitored with a Perkin Elmer LS50B luminescence spectrometer fitted with a thermostatted micro cuvette holder. Measurements were carried out using an excitation wavelength of 320 nm (bandwith 5 nm) and an emission wavelength of […] (bandwith 5 nm).
Inhibition assays were routinely carried out at pH 6.5 and μ=0.1 M using a single substrate concentration. The assay mixtures contained 50 μM Abz-NF^* -6 in 100 mM 2-(N-morpholino)ethanesulphonate buffer, containing 10% (v/v) glycerol and 50 μg/ml bovine serum albumin, in a total final volume of 400 μl. Where inhibitors had to be dissolved in dimethyl sulphoxide or other organic solvents, the final concentration of solvent in the control and inhibition assays were kept absolutely constant because of the severe inhibitory effect of some solvents on the enzyme activity (Bergman et al., 1992, 17th Ann. Lorne Conf. on Protein Struct. and Funct. Abstr.). In all assays, the reaction was initiated by the addition of 10 μl of enzyme solution.

[1] = Table 7, pH 6.5, 37° C., read-out: IC50
[2] = Table 1, pH 6.5, 37° C., read-out: IC50
[3] = Table 4, rac (R and S isomer together), read-out: IC50
[4] = Table 9, R isomer, read-out: IC50

Compound: CC(C)(C)NC(=O)CN(Cc1ccccc1)C[C@H](O)[C@@H]1Cc2ccc(cc2)OCCCC(=O)N[C@@H](CC(N)=O)C(=O)N1 [Compound 29]
IC50: 46000 nM

Compound: CC[C@H](C)[C@H](NC(=O)[C@@H]1CCCN1C[C@@H](O)[C@@H]1Cc2ccc(cc2)OCCNCC(=O)N[C@@H](CC(N)=O)C(=O)N1)C(=O)N[C@H](C(N)=O)C(C)C [Compound 8]
IC50 [2]: 700 nM

Compound: CC[C@H](C)[C@H](NC(=O)[C@@H]1CCCN1C[C@H](O)[C@@H]1Cc2ccc(cc2)OCC(=O)N[C@@H](Cc2cnc[nH]2)C(=O)N[C@@H](CC(N)=O)C(=O)N1)C(=O)N[C@H](C(N)=O)C(C)C [Compound 20]
IC50 (pH 6.5): 26 nM

Compound: CC[C@H](C)[C@H](NC(=O)[C@@H]1CCCN1C[C@H](O)[C@@H]1Cc2ccc(cc2)OCCCC(=O)N[C@@H](CC(N)=O)C(=O)N1)C(=O)N[C@H](C(N)=O)C(C)C [Compound 3, [2(S),11'(S),8'(S)]-2-[11'-[6',9'-dioxo-8'-(ethanamide)-2'-oxa-7',10'-diazabicyclo[11.2.2]heptadeca-13',15',16'-triene]]-1-(N-(S)-prolyl-(S)-isoleucyl-(S)-valine amide)ethan-2-ol]
IC50: 39 nM
protease inhibition, stated in words: successfully functionally mimicked compound 1

Compound: CC(C)C[C@@H]1NC(=O)CCCOc2ccc(cc2)C[C@@H]([C@@H](O)CN2CCCC[C@H]2C(=O)NC(C)(C)C)NC1=O [Compound 55]
protease inhibition, stated in words: slightly better than the isopropyl of 48/49

Compound: CCOC(=O)CCCOc1ccc(C[C@H](NC(=O)[C@H](CC(N)=O)NC(C)=O)[C@@H](O)CN2CCC[C@H]2C(=O)N[C@H](C(=O)N[C@H](C(N)=O)C(C)C)[C@@H](C)CC)cc1 [Compound 15]
protease inhibition, stated in words: slightly reduced potency
IC50 (Table 2, pH 6.5, 37° C., read-out: IC50): 45 nM

Compound: CC(C)CNC(=O)C(Cc1ccccc1)NC[C@H](O)[C@@H]1Cc2ccc(cc2)OCCCC(=O)N[C@@H](CC(N)=O)C(=O)N1 (stereo partly shown) [Compound 35]
IC50: 5200 nM

Compound: CC[C@H](C)[C@H](NC(=O)[C@@H]1CCCN1C[C@@H](O)[C@@H]1Cc2ccc(cc2)OCC(=O)N[C@@H](Cc2ccc(O)cc2)C(=O)N[C@@H](CC(N)=O)C(=O)N1)C(=O)N[C@H](C(N)=O)C(C)C [Compound 19]
IC50: 165 nM

Compound: AcLeuAsnPhe[^* CHOH--CH2 N]ProIleValOMe [Compound 1, reference compound]
IC50 (AcLeuAsnPhe[CHOH--CH2 N]ProIleValOMe, pH 6.5, 37° C., read-out: IC50): 60 nM
reduction of protease inhibition on truncation of the Serine (versus JG-365): 10 -fold

Compound: CC(C)(C)NC(=O)[C@@H]1CCCCN1C[C@H](O)[C@@H]1Cc2ccc(cc2)OCCCC(=O)N[C@@H](CC(N)=O)C(=O)N1 [Compound 45]
IC50: 5600 nM

Compound: CC[C@H](C)[C@H](NC(=O)[C@@H]1CCCN1C[C@@H](O)[C@@H]1Cc2ccc(cc2)OCC(=O)N[C@H](CCC(N)=O)C(=O)N[C@@H](CC(N)=O)C(=O)N1)C(=O)N[C@H](C(N)=O)C(C)C [Compound 24]
IC50: 40 nM

Compound: CCOC(=O)CCCOc1ccc(C[C@H](NC(=O)[C@H](CC(N)=O)NC(=O)OC(C)(C)C)[C@@H](O)CN2CCC[C@H]2C(=O)NC(C)(C)C)cc1 [Compound 37]
protease inhibition, stated in words: much less active than 38 & 39
IC50 (Table 5, pH 6.5, 37° C., read-out: IC50): 22000 nM

Compound: CC[C@H](C)[C@H](NC(=O)[C@@H]1CCCN1C[C@H](O)[C@@H]1Cc2ccc(cc2)OCC(=O)N[C@@H](Cc2ccc(O)cc2)C(=O)N[C@@H](CC(N)=O)C(=O)N1)C(=O)N[C@H](C(N)=O)C(C)C [Compound 18]
IC50: 38 nM

Compound: O=C1N(Cc2ccc(CO)cc2)[C@H](Cc2ccccc2)[C@H](O)[C@@H](O)[C@@H](Cc2ccccc2)N1Cc1ccc(CO)cc1 [Compound 94, reference compound]
IC50 (read-out: IC50): 1 nM

Compound: Ac-SLNFPIV-NH2 [Compound 84, reference compound]
IC50 [4]: 22 nM
IC50 (Table 9, S isomer, read-out: IC50): 1 nM

Second part, led by results:

IC50 [1]: 2 nM
Compound: CC(C)CCN(C[C@@H](O)[C@@H]1Cc2ccc(cc2)OCCCC(=O)N[C@@H](C(C)C)C(=O)N1)S(=O)(=O)c1ccc(N)cc1 [Compound 60]
protease inhibition, stated in words: Greater activity; also recorded: potent inhibitors of HIV-1 protease

IC50 (read-out: IC50): 9500 nM
Compound: CC[C@H](C)[C@H](NC(=O)[C@@H]1CCCN1C[C@@H](O)[C@@H]1Cc2ccc(cc2)OCCCC(=O)N[C@@H](CC(N)=O)C(=O)N1)C(N)=O [Compound 4]

IC50 [3]: 70000 nM
Compound: CC(C)(C)NC(=O)C(Cc1ccccc1)NC[C@H](O)[C@@H]1Cc2ccc(cc2)OCCCC(=O)N[C@@H](CC(N)=O)C(=O)N1 (stereo partly shown) [Compound 31]

protease inhibition, stated in words: more successfully mimics JG-365
Compound: CC[C@H](C)[C@@H]1NC(=O)[C@@H]2CN(CCCCCNC1=O)CCN2C[C@@H](O)[C@@H]1Cc2ccc(cc2)OCCCC(=O)N[C@@H](C(C)C)C(=O)N1 [Compound 123]

IC50 (read-out: IC50): 2 nM
Compound: CC(C)CCN(C[C@@H](O)[C@@H]1Cc2ccc(cc2)OCCCCCC(=O)N[C@@H](C(C)C)C(=O)N1)S(=O)(=O)c1ccc(N)cc1 [Compound 64]

IC50 [1]: 1 nM
Compound: CC(C)CCN(C[C@@H](O)[C@@H]1Cc2ccc(cc2)OCCCCC(=O)N[C@@H](C(C)C)C(=O)N1)S(=O)(=O)c1ccc(N)cc1 [Compound 62]

IC50 [2]: 55000 nM
Compound: NC(=O)C[C@@H]1NC(=O)CCCOc2ccc(cc2)C[C@@H]([C@H](O)CN2CCC[C@H]2C(N)=O)NC1=O [Compound 6]

protease inhibition, stated in words: only μM instead of nM
IC50 (read-out: IC50): 1700 nM
Compound: CC(C)CN(CC(=O)NC(C)(C)C)C[C@@H](O)[C@@H]1Cc2ccc(cc2)OCCCC(=O)N[C@@H](CC(N)=O)C(=O)N1 [Compound 26]

IC50 [3]: 70000 nM
Compound: CC(C)(C)NC(=O)C(Cc1ccccc1)NC[C@@H](O)[C@@H]1Cc2ccc(cc2)OCCCC(=O)N[C@@H](CC(N)=O)C(=O)N1 (stereo partly shown) [Compound 30]

protease inhibition, stated in words: slightly enhanced activity
IC50 (Table 10, pH 6.5, 37° C., read-out: IC50): 250 nM
Compound: CC(C)(C)OC(=O)N[C@@H](Cc1ccccc1)[C@H](O)CN[C@H]1Cc2ccc(cc2)OCCCNC(=O)[C@@H](CCC(N)=O)NC1=O [Compound 107]

IC50 (read-out: IC50): 194 nM
Compound: CC(C)(C)NC(=O)[C@@H]1CCCN1C[C@@H](O)[C@@H]1Cc2ccc(cc2)OCCCC(=O)N[C@@H](CC(N)=O)C(=O)N1 [Compound 38]

potency relative to compound 110: 100 -fold
Compound: CC[C@H](C)[C@@H]1NC(=O)[C@@H](NC[C@@H](O)[C@@H]2Cc3ccc(cc3)OCCCC(=O)N[C@@H](CC(N)=O)C(=O)N2)Cc2ccc(cc2)OCCCNC1=O [Compound 109]

protease inhibition, stated in words: little effect
IC50 [4]: 2 nM
Compound: CC[C@H](C)[C@@H]1NC(=O)[C@@H](NC[C@@H](O)[C@H](Cc2ccccc2)NC(=O)[C@@H](NC(=O)[C@H](CC(C)C)NC(C)=O)C(C)C)Cc2ccc(cc2)OCCCNC1=O [Compound 87, [2(R),3(S),11'(S),8'(S)]-3-[-Acetyl-(S)-leucinyl-(S)-valinyl]amino-4-phenyl-1-[11'-[7',10'-dioxo-8'-(1-methylpropyl)-2'-oxa-6',9'-diazabicyclo[11.2.2]heptadeca-13',15',16'-triene]amino]butan-2-ol]

protease inhibition, stated in words: reduced potency
IC50 (read-out: IC50): 850 nM
Compound: CC[C@H](C)[C@H](NC(=O)[C@@H]1CCCN1C[C@H](O)[C@@H]1Cc2ccc(cc2)OCCCC(=O)N[C@@H](CC(N)=O)C(=O)N1)C(N)=O [Compound 5]

protease inhibition, stated in words: reduced potency
IC50 [2]: 120000 nM
Compound: NC(=O)C[C@@H]1NC(=O)CCCOc2ccc(cc2)C[C@@H]([C@@H](O)CN2CCC[C@H]2C(N)=O)NC1=O [Compound 7]

protease inhibition, stated in words: little effect
IC50 [4]: 5 nM
Compound: CC[C@H](C)[C@@H]1NC(=O)[C@@H](NC[C@@H](O)[C@H](Cc2ccccc2)NC(=O)[C@@H](NC(=O)[C@H](CC(C)C)NC(C)=O)C(C)C)Cc2ccc(cc2)OCCCCNC1=O [Compound 88]
